Legend:
[1] = Antiallergic action (summary of tests); format: in vivo; settings: summary statement
Source text: Test: Antiallergic Action
(2) Inhibition test of P.C.A. (Passive Cutaneous Anaphylaxis) reaction
(3) Inhibition test of anaphylactic asthma in guinea-pigs

[2] = test system: P.C.A. reaction in Donryu strain rats; assay: Inhibition of P.C.A. reaction in Donryu strain rats, rat reaginic antiserum against egg albumin; format: in vivo; settings: Donryu rat (Table 2-II)
Experimental: (a) Rat reaginic antiserum against egg albumin
A solution of egg albumin (2 mg) in B. pertussis-diphtheria-tetanus mixed vaccine (1 ml.) (made by Takeda Chemical Industries Ltd.) was mixed with an equal volume of incomplete adjuvant (made by Difco Laboratories) to give an emulsion. The emulsion was given subcutaneously in a single dose of 1 ml. divided equally (0.25 ml.) to the four foot pads of male S.D. (Sprague-Dawley) strain rats aged 8 weeks, each weighing about 300 g.
Five days after the administration, a solution of egg albumin (0.5 mg.) in B. pertussis-diphtheria-tetanus mixed vaccine (0.5 ml.) was further given intramuscularly in a single dose of 0.5 ml. divided equally (0.25 ml.) to 2 places of thigh of the same rats.
Three days after the second administration, blood samples were collected from femoral artery of the rats and allowed to stand at ambient temperature for 5 hours. The separated supernatant was centrifuged at 4° C. (10,000 r.p.m.× 1 hour). The antisera thus obtained were stored at -80° C. prior to use.
(§1) (b) Inhibitory effect on P.C.A. reaction in Donryu strain rat
(§2) The following tests were carried out in substantially the same manner as described in the above item (2)-(a).
(§3) (i) Test compound: N:methyllaurotetanine hydrochloride
(§4) Test animal: Male Donryu strain rats aged 8 weeks, weighing about 130 g.
(§5) Challenge: A normal saline (0.3 ml.) containing egg albumin (4.5 mg.) and Evans blue (1.5 mg.).
(§6) (ii) Test commpound: glaucine or boldine
(§7) Test animal: Male Donryu strain rats aged 8 weeks, weighing 140-150 g.
(§8) Challenge: the same as the above item (b)-(i).

[3] = test system: P.C.A. reaction in Donryu strain rats; assay: Inhibition of P.C.A. reaction in Donryu strain rats, rat hyperimmune antiserum against egg albumin; format: in vivo; settings: Donryu rat (Table 2-II)
Experimental: (b) Rat hyperimmune antiserum against egg albumin
A solution of egg albumin (20 mg.) in normal saline (1 ml.) was mixed with complete adjuvant (1 ml.) (made by Difco Laboratories) to given an emulsion. The emulsion was subcutaneously given in a single dose of 1 ml. divided equally (0.25 ml.) to the four pads of male S.D. strain rats aged 6 weeks, each weighing about 200 g. (The first immunization).
One week after the administration, an emulsion which was prepared by mixing a solution of egg albumin (10 mg.) in normal saline (1 ml.) with complete adjuvant (1 ml.) was further given subcutaneously (at 3 places) and intramuscularly (at 1 place) in a single dose of 1 ml. divided equally (0.25 ml.) to thigh of the same rats. (The second immunization).
Three weeks after the second administration, a solution of egg albumin (1 mg.) in normal saline (1 ml.) was further given intracutaneously in a single dose of 0.3 ml. divided equally (0.1 ml.) to 3 places of the same rats. (The third immunization).
One week after the third administration, blood samples were collected from rats and treated in substantially the same manner as described in the above item (a). The antisera thus obtained were stored at -80° C. prior to use.
Further, an inhibition test on P.C.A. reaction using the rat hyperimmuneantiserum against egg albumin was carried out in substantially the same manner as described in the above, excepting that the intravenous administration to bring about P.C.A. was carried out at 5.5 hours after the administration of the serum and antiserum. And inhibitory effect on the P.C.A. reaction was also calculated in substantially the same manner as described in the above.
as §1, §2, §3, §4, §5, §6, §7, §8

Acute toxicity in mice = settings: mouse, in vivo, ip; intraperitoneal, male I.C.R. mice, survivals at one week
Experimental: Test: Acute Toxicity in Mice
A normal saline containing each of the test compound mentioned below and 0.5% carboxymethylcellulose was given intraperitoneally to male I.C.R. (Institute of Cancer Research) strain mice aged 5 weeks, weighing 33-35 g. LD50 values were calculated from the survivals of mice at one week after the administration of the test compound.

[4] = Apomorphine-like side effect (summary of side effect tests); format: in vivo; settings: summary statement
Source text: (i) Rotational behavior inducing action in rats unilaterally lesioned in substantia nigra,
(ii) Gnawing behavior including action in rats, and
(iii) Vomiting-inducing action in dogs

[5] = test system: P.C.A. reaction in I.C.R. strain mice; assay: Inhibition test of P.C.A. reaction in I.C.R. strain mice, rat hyperimmune antiserum against egg albumin; format: in vivo; settings: intraperitoneal, I.C.R. mouse (Table 3-II)
Experimental: (c) Inhibition test of P.C.A. reaction in I.C.R. (Institute of Cancer Research) strain mice
(i) Test compound: N-methyllaurotetanine hydrochloride
Fifteen male I.C.R. strain mice aged 7 weeks, weighing about 35 g were divided equally into 3 groups. Each of the groups was composed of 5 mice, (in case of intraperioneal administration of the test compound to the mouse, each of the groups was composed of […]).
Ten-hold diluted solution (0.05 ml.) of the rat hyperimmune antiserum against egg albumin was given intracutaneously to the depilated back of each mouse of Group I and Group II, respectively. On the other hand, a rat normal serum (0.05 ml.) was given intracutaneously to the depilated back of each mouse of Group III. Three hours after the administration, a normal saline (0.1 ml.) containing egg albumin (1.5 mg.) and Evans blue (0.5 mg.) was given intravenously to each mouse of Groups I-III in order to bring about P.C.A., respectively.
Beforehand, 3 hours and 1 hours before the admnistration to bring about P.C.A., a normal saline (0.3 ml.) containing the prescribed amount of N-methyllaurotetanine hydrochloride and carboxymethylcellulose (0.5%) was given orally or intraperitoneally to each mouse of Group I, and a normal saline (0.3 ml.) containing only carboxymethylcellulose (0.5%) was given orally or intraperitoneally to each mouse of Group II.
The procedure followed by the above, was carried out in substantially the same manner as described in the above item (2)-(a). […]

[6] = cited from earlier work

SMILES	antiallergic effects [1]	Inhibitory effect on P.C.A. reaction ([2]; intraperitoneal, 20 mg/kg)	Inhibitory effect on P.C.A. reaction ([2]; intraperitoneal, 60 mg/kg)	Inhibitory effect on P.C.A. reaction ([2]; oral, 50 mg/kg)	Inhibitory effect on P.C.A. reaction ([2]; oral, 100 mg/kg)	Inhibitory effect on P.C.A. reaction ([2]; oral, 200 mg/kg)	Inhibitory effect on P.C.A. reaction ([3]; intraperitoneal, 20 mg/kg)	Inhibitory effect on P.C.A. reaction ([3]; intraperitoneal, 60 mg/kg)	Inhibitory effect on P.C.A. reaction ([3]; oral, 50 mg/kg)	Inhibitory effect on P.C.A. reaction ([3]; oral, 100 mg/kg)	Inhibitory effect on P.C.A. reaction ([3]; oral, 200 mg/kg)	LD50 at 168 h (Acute toxicity in mice)	apomorphine-like side effect [4]	Inhibitory effect on P.C.A. reaction ([5]; 10 mg/kg)	Inhibitory effect on P.C.A. reaction ([5]; 30 mg/kg)	adrenolytic action and antitussive properties ([6]; Chemical Abstracts Vol. 68, 94521Z (1968))	Inhibitory effect on P.C.A. reaction ([2]; intraperitoneal, 66 mg/kg)	Inhibitory effect on P.C.A. reaction ([3]; intraperitoneal, 66 mg/kg)	diuretic activity ([6]; THE MERCK INDEX EIGHTH EDITION, Page 159 (1968))	curariform activity ([6]; Japanese Patent Publication No. 24092/1961)
COc1cc2c(cc1OC)-c1c(OC)c(OC)cc3c1[C@H](C2)N(C)CC3 [Glaucine, glaucine]	much superior antiallergic effects	60%	95%	70%	80%	95%	50%	85%	60%	80%	90%	212 mg/kg	without apomorphine-like side effect	50%	60%	adrenolytic action and antitussive properties				
COc1cc2c(cc1O)C[C@H]1c3c(cc(O)c(OC)c3-2)CCN1C [Boldine, boldine]	much superior antiallergic effects											145 mg/kg	without apomorphine-like side effect		20%		40%	30%	diuretic activity	
COc1cc2c(cc1O)CC1c3c(cc(OC)c(OC)c3-2)CCN1C (centres unmarked) [N-methyllaurotetanine]	much superior antiallergic effects												without apomorphine-like side effect							curariform activity

Reference: patent US4185119A, “Antiallergic methods” (priority 1977, dated 1980)
